From patent publication US5691307A, “O^6 -substituted guanine compositions and methods for depleting O^6” (The United States of America as represented by the …, priority 1994, dated 1997)
pIC50: −log10 of the molar value. Like-named read-outs stand apart in the source and are kept apart here.

Assays:
AGT [1] = assay: AGT depletion (general statements)
[2] = biological target: T1, alkyltransferase (AGT), HT29 cell-free extract (Homo sapiens, UniProt P16455); assay: biochemical
T1 sequence (P16455 1-207): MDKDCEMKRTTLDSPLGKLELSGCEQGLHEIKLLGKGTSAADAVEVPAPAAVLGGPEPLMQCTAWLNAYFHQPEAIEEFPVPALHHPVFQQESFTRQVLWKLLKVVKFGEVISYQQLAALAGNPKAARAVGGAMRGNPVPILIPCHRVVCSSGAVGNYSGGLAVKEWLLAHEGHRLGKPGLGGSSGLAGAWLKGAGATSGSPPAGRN

[3] = biological target: T2, alkyltransferase (AGT), HT29 cells (Homo sapiens, UniProt P16455); assay: AGT depletion/inactivation in intact HT29 cells; type: cell-based
T2 construct: human colon tumor cells HT29 and intact HT29 cells; endogenous in cells; host or cells: HT29 human colon tumor cells, intact
T2 sequence (P16455 1-207): T1 sequence (P16455 1-207)
Description: After four hours, cells were harvested and frozen at -80° C. until analysis for AGT.

tumor cells = details: cited from earlier work
AGT [4] = details: cited from earlier work; for AGT depletion (shown previously): literature
[5] = HT29 cell-free extract, 30 min incubation, 50% inactivation (Table 2), read-out: ED50 In cell-free extract
[6] = HT29 cells, 4 h incubation, 50% inactivation (Table 2), read-out: ED50 In cells

Structure (SMILES) | AGT depletion characteristics (AGT [1]) | pIC50 [2, 5] | pIC50 [3, 6] | AGT depletion (shown previously) (AGT [4]) | other results
Nc1nc(OCc2ccccc2)c2ncn(CC(=O)[O-])c2n1.[Na+] | exhibit AGT depletion characteristics | – | – | – | –
CCOC(=O)Cn1cnc2c(OCc3ccccc3)nc(N)nc21 [Example 3b, 2-Amino-6-benzyloxy-9-carboethoxymethylpurine] | exhibit AGT depletion characteristics | 4.52 | 5.52 | – | –
NC(=O)Cn1cnc2c(OCc3ccccc3)nc(N)nc21 [Example 4b, 2-Amino-6-benzyloxy-9-carbamoylmethylpurine] | exhibit AGT depletion characteristics | – | – | – | –
CCC(O)Cn1cnc2c(OCc3ccccc3)nc(N)nc21 (stereo not shown) [Example 5b, 2-Amino-6-benzyloxy-9-(2-hydroxybutyl)purine] | exhibit AGT depletion characteristics | – | – | – | –
N#CCn1cnc2c(OCc3ccccc3)nc(N)nc21 [Example 6b, 2-Amino-6-benzyloxy-9-cyanomethylpurine] | exhibit AGT depletion characteristics | – | – | – | –
CC(=O)OC[C@H]1OC(OC(C)=O)[C@H](NC(=O)Cn2cnc3c(OCc4ccccc4)nc(N)nc32)[C@@H](OC(C)=O)[C@@H]1OC(C)=O (stereo partly drawn) [Example 8, 2-Amino-6-benzyloxy-9-{N-[2-deoxy-2-(1,3,4,6-tetra-O-acetyl)-D-glucopyranosyl]carbamoylmethyl}purine] | exhibit AGT depletion characteristics | – | – | – | –
C[C@]12CC[C@H]3[C@@H](CCC4=CC(=O)CC[C@@]43C)[C@@H]1CC[C@@H]2OC(=O)Cn1cnc2c(OCc3ccccc3)nc(N)nc21 [Example 20, O^6 -Benzyl-9-(4-androsten-3-one-17β-oxycarbonylmethyl) guanine] | – | – | – | – | pIC50 [2]: 5.30; pIC50 [3]: 6.30
C[C@]12CCC(=O)C[C@@H]1CC[C@@H]1[C@@H]2CC[C@]2(C)[C@@H](OC(=O)Cn3cnc4c(OCc5ccccc5)nc(N)nc43)CC[C@@H]12 [Example 22, O^6 -Benzyl-9-(5α-androstan-3-one-17β-oxycarbonylmethyl) guanine] | – | – | – | – | pIC50 [2]: 5.40; pIC50 [3]: 6.30
Nc1nc(OCc2ccc(Cl)cc2)c2nc[nH]c2n1 [O^6 -(p-chlorobenzyl)guanine, O^6 -(p-chlorobenzyl) guanine] | – | 6.70 | 7.10 | effective in depleting AGT | enhancement in the cytotoxic response to alkylating agents (tumor cells): enhancement in the cytotoxic response to chemotherapeutic alkylating agents; potency as AGT depleter (AGT [4]): more potent
Nc1nc(OCc2ccc(Cl)cc2)c2ncn([C@@H]3O[C@H](CO)[C@@H](O)[C@H]3O)c2n1 [O^6 -(p-chlorobenzyl)guanosine] | – | 5.00 | 5.30 | effective in depleting AGT | –
Nc1nc(OCc2ccc(F)cc2)c2nc[nH]c2n1 [O^6 -(p-fluorobenzyl)guanine, O^6 -(p-fluorobenzyl) guanine] | – | 6.70 | – | effective in depleting AGT | –
Cc1ccc(COc2nc(N)nc3c2ncn3[C@@H]2O[C@H](CO)[C@@H](O)[C@H]2O)cc1 [O^6 -(p-methylbenzyl)guanosine, O^6 - (p-methylbenzyl)guanosine] | – | 5.05 | 5.52 | effective in depleting AGT | –
C=CCOc1nc(N)nc2nc[nH]c12 [O^6 -allylguanine, O^6 -Allylguanine] | – | – | – | – | pIC50 [2]: 4.70; pIC50 [3]: 5.40
Nc1nc(OCc2ccccc2)c2ncn([C@@H]3O[C@H](CO)[C@@H](O)[C@H]3O)c2n1 [O^6 -benzylguanosine] | – | 4.96 | 5.70 | effective in depleting AGT | –
Nc1nc(OCc2ccccc2)c2ncn([C@H]3C[C@H](O)[C@@H](CO)O3)c2n1 [O^6-benzyl-2'-deoxyguanosine] | – | 5.70 | 6.30 | effective in depleting AGT | –
Nc1nc(OCc2ccccc2)c2ncn(CC(=O)[O-])c2n1.[Na+] [sodium salt] | – | 3.80 | – | – | –
